# Values joined by “and” are separate entries in the source; they are usually repeats but may differ in a detail not shown here. Equal values may be shown once. Active and inactive are the calls of the source.
# Key:
# HEK293 [1] = assay: NOD1 signaling inhibitors, primary screen, cell-based, luminescence, uHTS (AID 1578); type: functional; conditions: Homo sapiens
# HEK293 [2] = assay: cells; type: functional, cell-based; conditions: Homo sapiens
# HEK293 [3] = assay: cells; type: functional, cell-based; conditions: Homo sapiens; remark: listed apart in the source
# [4] = target: Nucleotide-binding oligomerization domain-containing protein 2 (Homo sapiens, UniProt Q9HC29); assay: NOD2 signaling inhibitors, cell-based, luminescence, uHTS, HEK293 (AID 1566); type: functional
# HEK293 [5] = assay: NOD2 signaling inhibitors in MDP-stimulated cells, cell-based, uHTS, luminescence (AID 2001); type: functional; conditions: Homo sapiens
# HEK293 [6] = assay: cells; type: functional, cell-based; conditions: Homo sapiens; remark: listed apart in the source
# Tumor necrosis factor = Tumor necrosis factor (Homo sapiens, UniProt P01375); assay: TNFa-triggered NF-kB activation inhibitors, SAR follow-up, cell-based, revised (AID 2337); type: functional
# [7] = target: T1, Nucleotide-binding oligomerization domain-containing protein 1 (Homo sapiens, UniProt Q9Y239); assay: NOD1 signaling inhibitors, SAR follow-up, revised (AID 2333); type: functional
# T1 sequence (Q9Y239 whole entry): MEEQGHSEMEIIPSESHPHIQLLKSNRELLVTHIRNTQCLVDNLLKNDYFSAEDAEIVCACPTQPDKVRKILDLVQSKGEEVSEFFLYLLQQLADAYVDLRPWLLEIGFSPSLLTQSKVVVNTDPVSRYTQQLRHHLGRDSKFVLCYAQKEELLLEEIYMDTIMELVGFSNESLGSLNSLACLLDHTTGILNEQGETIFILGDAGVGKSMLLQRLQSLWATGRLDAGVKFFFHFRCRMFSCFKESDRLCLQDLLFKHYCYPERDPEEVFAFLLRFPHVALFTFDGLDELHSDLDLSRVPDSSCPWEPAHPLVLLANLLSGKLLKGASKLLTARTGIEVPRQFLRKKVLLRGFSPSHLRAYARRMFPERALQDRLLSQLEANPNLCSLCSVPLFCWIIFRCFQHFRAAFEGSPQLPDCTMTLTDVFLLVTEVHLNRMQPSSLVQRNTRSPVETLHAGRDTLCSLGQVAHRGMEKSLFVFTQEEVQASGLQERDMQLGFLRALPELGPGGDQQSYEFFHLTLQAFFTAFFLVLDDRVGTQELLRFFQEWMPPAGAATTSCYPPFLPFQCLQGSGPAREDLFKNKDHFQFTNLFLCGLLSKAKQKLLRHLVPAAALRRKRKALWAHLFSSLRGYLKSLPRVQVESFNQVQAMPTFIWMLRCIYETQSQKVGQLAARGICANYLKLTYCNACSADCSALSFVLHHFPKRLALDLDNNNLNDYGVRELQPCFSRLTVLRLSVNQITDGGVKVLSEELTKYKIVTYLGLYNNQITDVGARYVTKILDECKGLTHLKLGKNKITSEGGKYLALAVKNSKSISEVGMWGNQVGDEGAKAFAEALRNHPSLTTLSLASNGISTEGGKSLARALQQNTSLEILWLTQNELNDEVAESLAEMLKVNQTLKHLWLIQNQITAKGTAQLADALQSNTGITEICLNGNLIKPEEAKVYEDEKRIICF
# HEK293 [8] = assay: cells; conditions: Homo sapiens
# [9] = target: Glyceraldehyde-3-phosphate dehydrogenase (Homo sapiens, UniProt P04406)
# [10] = target: T2, Alkaline phosphatase, tissue-nonspecific isozyme (Homo sapiens, UniProt P05186); assay: human TNAP enzyme inhibitors, SAR follow-up, biochemical, luminescent, dose response (AID 1056)
# T2 sequence (P05186 whole entry): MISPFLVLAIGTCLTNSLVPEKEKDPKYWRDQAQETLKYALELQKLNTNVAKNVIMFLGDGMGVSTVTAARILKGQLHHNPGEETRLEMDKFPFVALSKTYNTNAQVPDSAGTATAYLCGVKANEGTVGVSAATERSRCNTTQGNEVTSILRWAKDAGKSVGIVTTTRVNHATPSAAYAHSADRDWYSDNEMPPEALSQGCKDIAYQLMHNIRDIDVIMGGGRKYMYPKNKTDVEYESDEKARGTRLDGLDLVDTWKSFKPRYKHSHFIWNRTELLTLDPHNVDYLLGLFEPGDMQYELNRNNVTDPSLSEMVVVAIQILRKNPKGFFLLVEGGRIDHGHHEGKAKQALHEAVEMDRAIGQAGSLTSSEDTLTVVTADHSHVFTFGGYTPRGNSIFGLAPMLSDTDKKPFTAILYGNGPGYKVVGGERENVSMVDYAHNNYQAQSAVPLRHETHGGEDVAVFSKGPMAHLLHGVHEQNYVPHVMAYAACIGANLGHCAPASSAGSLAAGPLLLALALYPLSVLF
# [11] = THP-1 cell cytotoxicity, dose response, cytotoxicity control for non-replicating M. tuberculosis project (AID 489025); type: functional
# cells = type: functional
# [12] = target: Induced myeloid leukemia cell differentiation protein Mcl-1 (Homo sapiens, UniProt Q07820); type: functional
# [13] = target: T3, Rac GTPase-activating protein 1 (Homo sapiens, UniProt Q9H0H5); assay: MgcRacGAP GTPase-activating activity inhibitors, confirmation, biochemical, ADP Hunter fluorescence, primary and confirmatory (AID 624330); type: functional
# T3 sequence (Q9H0H5 whole entry): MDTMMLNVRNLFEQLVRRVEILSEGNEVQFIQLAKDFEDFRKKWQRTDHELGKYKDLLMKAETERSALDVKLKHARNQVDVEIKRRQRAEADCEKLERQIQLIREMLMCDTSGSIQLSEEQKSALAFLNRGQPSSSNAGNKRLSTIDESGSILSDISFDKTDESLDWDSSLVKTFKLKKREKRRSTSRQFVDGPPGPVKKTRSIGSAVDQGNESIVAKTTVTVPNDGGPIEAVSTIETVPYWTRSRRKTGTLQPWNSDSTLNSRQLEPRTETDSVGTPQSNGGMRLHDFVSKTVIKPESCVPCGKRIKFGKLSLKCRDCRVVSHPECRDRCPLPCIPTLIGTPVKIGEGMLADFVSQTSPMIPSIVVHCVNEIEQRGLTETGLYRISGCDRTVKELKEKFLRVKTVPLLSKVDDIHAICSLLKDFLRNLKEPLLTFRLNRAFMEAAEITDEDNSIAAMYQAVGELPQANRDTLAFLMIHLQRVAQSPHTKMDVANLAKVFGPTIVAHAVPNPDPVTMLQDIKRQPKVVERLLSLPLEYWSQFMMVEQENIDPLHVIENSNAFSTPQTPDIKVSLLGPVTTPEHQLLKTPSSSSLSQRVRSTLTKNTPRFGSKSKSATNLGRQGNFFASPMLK
# [14] = target: T4, Microphthalmia-associated transcription factor (Homo sapiens, UniProt O75030); assay: TRPM1 promoter luciferase signal decrease, dose response, MITF inhibitor project, cell-based, SK-MEL-5, cherry-picked, set 3 (AID 493073); type: functional
# T4 sequence (O75030 whole entry): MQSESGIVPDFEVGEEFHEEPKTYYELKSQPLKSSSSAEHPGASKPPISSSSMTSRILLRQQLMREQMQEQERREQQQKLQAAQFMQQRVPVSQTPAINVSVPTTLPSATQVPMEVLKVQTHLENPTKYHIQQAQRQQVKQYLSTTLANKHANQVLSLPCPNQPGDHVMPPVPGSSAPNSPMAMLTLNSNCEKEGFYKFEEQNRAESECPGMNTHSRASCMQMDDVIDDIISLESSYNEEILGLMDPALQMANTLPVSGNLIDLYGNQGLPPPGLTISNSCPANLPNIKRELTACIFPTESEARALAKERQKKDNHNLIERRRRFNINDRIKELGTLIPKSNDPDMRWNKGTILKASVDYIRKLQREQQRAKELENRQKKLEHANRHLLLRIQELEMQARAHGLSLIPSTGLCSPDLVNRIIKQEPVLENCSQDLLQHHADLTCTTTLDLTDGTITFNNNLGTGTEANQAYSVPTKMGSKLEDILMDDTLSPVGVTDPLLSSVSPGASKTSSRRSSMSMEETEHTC
# [15] = system: Streptococcus sp. 'group A'; assay: growth inhibition of control SK(-) GAS strain, dose response, counter-screen for streptokinase expression inhibitor project, luminescence, kanamycin, BacTiterGlo, confirmation (AID 1900); type: functional, organism-based
# Streptokinase A = target: T5, Streptokinase A (Streptococcus pyogenes serotype M1, UniProt P10520); assay: S. pyogenes streptokinase expression inhibitors, potency, dose response, plasminogen activation absorbance, OD405 (AID 1914); type: functional, Streptococcus pyogenes M1 GAS;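 also: secreted streptokinase activity via plasminogen activation per viability signal from cell pellet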
# T5 sequence (P10520 whole entry): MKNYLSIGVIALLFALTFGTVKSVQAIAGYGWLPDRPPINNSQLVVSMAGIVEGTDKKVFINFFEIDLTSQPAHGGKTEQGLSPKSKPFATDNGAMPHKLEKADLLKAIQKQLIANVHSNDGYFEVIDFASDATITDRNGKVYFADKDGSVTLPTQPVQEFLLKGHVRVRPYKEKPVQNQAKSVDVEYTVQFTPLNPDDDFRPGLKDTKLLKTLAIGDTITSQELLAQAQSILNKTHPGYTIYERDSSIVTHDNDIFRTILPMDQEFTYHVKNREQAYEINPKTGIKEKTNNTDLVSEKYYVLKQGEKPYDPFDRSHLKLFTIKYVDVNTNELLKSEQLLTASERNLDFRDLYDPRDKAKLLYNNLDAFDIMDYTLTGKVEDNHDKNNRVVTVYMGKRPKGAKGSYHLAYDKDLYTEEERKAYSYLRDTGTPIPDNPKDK
# Streptococcus = assay: Group A Streptococcus viability loss, dose response, counter-screen for streptokinase expression inhibitor project, luminescence, BacTiterGlo (AID 1915); type: functional, organism-based;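 also: potency for reduction of bacterial viability or growth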
# Nonstructural protein 1 = Nonstructural protein 1 (Influenza A virus, UniProt Q194T2); type: functional, Influenza A virus (A/California/07/2009(H1N1))
# [16] = target: FAD-linked sulfhydryl oxidase ALR (Homo sapiens, UniProt P55789); assay: inhibitors of human ALR sulfhydryl oxidase, dose response, biochemical, H2O2 detection, luminescence, cherry-pick (AID 493248)
# [17] = target: T6, Polyadenylate-binding protein 1 (Homo sapiens, UniProt P11940); assay: PABP1 MLLE–PAM2 interaction inhibitors, dose response, miRNA deadenylation inhibitor project, biochemical, fluorescence polarization, Cy5-PAM2 peptide, secondary (AID 602260); type: functional; conditions: read-out: IC50_Mean
# [18] = target: T6, Polyadenylate-binding protein 1; assay: PABP1 MLLE–PAM2 binding inhibitor potency, dose response, biochemical, fluorescence polarization, FITC-PAM2 peptide (AID 602259); type: functional; conditions: read-out: IC50_Mean
# [19] = target: T7, Carboxy-terminal domain RNA polymerase II polypeptide A small phosphatase 1 (Homo sapiens, UniProt Q9GZU7); assay: inhibitors of CTDSP1, concentration-response testing, biochemical assay, absorbance-based, actives from ultra-high-throughput screening (AID 540297); type: functional
# T7 sequence (Q9GZU7 whole entry): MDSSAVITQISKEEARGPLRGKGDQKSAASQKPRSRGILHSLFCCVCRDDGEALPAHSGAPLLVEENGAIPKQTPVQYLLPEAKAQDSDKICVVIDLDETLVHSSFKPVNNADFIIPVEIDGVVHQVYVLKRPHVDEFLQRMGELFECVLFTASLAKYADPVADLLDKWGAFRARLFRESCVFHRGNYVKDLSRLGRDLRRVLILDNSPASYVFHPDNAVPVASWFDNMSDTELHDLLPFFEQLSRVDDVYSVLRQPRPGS
# Induced myeloid leukemia cell differentiation protein Mcl-1, sequence (Q07820 whole entry): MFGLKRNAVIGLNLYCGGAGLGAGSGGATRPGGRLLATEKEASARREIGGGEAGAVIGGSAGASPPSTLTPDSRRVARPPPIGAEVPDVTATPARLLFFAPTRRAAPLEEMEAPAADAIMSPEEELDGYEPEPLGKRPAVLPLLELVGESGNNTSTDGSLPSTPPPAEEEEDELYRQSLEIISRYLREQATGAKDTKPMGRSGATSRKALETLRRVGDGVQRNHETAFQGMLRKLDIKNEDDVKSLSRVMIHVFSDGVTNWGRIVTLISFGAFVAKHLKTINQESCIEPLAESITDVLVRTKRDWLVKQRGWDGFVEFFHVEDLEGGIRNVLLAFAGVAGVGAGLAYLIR
# Tumor necrosis factor, sequence (P01375 whole entry, the tested form may be a part): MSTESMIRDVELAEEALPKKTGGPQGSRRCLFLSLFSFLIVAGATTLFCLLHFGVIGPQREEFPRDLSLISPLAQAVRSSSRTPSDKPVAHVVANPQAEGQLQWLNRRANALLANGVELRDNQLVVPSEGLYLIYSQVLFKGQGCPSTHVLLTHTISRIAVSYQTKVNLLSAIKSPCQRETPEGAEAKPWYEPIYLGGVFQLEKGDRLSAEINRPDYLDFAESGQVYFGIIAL
# Glyceraldehyde-3-phosphate dehydrogenase, sequence (P04406 whole entry): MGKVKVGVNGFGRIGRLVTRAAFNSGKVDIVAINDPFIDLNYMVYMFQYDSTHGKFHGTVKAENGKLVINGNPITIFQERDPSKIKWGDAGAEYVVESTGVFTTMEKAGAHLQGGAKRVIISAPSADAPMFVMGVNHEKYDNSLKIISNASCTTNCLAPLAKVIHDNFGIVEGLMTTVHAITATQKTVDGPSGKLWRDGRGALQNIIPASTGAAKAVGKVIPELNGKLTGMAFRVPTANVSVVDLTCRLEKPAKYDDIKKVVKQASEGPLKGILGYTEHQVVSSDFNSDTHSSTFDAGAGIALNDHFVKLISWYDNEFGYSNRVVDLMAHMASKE
# Nucleotide-binding oligomerization domain-containing protein 2, sequence (Q9HC29 whole entry, the tested form may be a part): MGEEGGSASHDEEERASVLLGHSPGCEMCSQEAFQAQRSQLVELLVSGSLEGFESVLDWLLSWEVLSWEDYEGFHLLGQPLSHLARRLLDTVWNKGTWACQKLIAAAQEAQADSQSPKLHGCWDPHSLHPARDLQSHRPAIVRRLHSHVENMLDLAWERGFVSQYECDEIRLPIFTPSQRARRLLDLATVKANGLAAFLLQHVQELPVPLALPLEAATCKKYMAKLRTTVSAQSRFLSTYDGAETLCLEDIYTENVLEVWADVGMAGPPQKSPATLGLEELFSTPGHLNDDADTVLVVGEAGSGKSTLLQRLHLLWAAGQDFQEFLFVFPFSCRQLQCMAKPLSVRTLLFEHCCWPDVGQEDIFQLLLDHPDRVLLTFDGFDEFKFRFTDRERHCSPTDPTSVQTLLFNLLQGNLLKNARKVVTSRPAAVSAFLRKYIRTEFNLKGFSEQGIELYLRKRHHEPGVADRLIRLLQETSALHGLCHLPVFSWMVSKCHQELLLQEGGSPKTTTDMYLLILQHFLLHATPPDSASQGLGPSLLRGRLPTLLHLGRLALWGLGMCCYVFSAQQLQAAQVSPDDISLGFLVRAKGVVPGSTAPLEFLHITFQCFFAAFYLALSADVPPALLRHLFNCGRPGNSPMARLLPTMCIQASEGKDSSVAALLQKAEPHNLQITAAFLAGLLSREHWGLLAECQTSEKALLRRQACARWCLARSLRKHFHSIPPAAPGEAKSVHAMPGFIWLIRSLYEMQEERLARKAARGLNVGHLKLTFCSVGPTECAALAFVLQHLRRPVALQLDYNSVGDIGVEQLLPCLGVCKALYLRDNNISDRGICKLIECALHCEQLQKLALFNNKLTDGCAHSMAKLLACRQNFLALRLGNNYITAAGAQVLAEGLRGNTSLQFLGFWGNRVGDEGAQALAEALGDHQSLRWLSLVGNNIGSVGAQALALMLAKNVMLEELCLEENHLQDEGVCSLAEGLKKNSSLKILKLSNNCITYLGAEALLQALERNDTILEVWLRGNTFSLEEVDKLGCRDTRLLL
# T6 sequence (P11940 whole entry): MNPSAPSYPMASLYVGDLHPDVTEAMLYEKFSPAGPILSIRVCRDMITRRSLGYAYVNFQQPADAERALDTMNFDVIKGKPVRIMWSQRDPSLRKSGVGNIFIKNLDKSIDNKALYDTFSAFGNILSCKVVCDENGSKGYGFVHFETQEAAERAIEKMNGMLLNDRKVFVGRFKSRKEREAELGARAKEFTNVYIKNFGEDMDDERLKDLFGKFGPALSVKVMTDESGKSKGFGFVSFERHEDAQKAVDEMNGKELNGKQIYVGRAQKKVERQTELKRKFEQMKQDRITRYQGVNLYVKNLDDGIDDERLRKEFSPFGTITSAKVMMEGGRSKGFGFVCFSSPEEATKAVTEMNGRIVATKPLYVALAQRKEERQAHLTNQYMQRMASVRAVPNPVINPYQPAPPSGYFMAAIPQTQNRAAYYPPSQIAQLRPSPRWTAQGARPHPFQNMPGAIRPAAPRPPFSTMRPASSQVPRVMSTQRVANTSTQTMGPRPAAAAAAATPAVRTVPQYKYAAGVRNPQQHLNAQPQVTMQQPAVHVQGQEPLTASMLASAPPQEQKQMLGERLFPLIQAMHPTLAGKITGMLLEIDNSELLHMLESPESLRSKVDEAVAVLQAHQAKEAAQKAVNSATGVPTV
# Nonstructural protein 1, sequence (Q194T2 whole entry): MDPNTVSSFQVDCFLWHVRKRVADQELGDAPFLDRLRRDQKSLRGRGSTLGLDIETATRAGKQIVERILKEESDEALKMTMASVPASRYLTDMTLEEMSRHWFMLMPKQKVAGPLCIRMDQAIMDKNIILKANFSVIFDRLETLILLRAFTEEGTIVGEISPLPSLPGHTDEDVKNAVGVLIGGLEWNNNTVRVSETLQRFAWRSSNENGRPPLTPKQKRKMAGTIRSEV
# FAD-linked sulfhydryl oxidase ALR, sequence (P55789 whole entry): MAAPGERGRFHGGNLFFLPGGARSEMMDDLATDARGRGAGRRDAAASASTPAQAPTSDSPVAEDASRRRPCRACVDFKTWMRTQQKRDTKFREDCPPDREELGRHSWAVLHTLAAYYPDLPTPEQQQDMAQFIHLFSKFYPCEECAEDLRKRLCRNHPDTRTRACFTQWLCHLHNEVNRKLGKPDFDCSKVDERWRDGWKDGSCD
smiles,measurement,setting,value
O=C(Nc1sc2c(c1C(=O)O)CCCC2)c1ccccc1Cl,EC50,HEK293 [1],14.5 µM (active)
same,IC50,HEK293 [2],> 20 µM (inactive)
same,IC50,HEK293 [3],> 20 µM (inactive)
same,EC50,[4],> 20 µM (inactive)
same,IC50,HEK293 [5],18.5 µM (inactive)
same,IC50,HEK293 [6],> 20 µM (inactive)
same,IC50,Tumor necrosis factor,> 20 µM (inactive) and 12.9 µM (active)
same,IC50,[7],5.12 µM (active) and 4.45 µM (active)
same,IC50,HEK293 [8],> 20 µM (inactive)
O=C(Nc1ccccc1)c1n[nH]c2c1COc1ccccc1-2,IC50,[9],> 100 µM (not active)
same,IC50,[10],> 100 µM (inactive)
N#Cc1ccc(-c2ccc(OCC(=O)Nc3cccnc3)cc2)cc1,CC50,[11],10.8 µM (active)
same,IC50,cells,1.63 µM (active)
CCN(CC)c1ccc(/C=N/N2CCN(Cc3ccccc3)CC2)cc1,IC50,[12],11.5 µM (not active)
same,IC50,[13],78.7 µM (active)
CCOc1ccc(NC(=O)c2ccc(CN3CCc4ccccc43)cc2)cc1,IC50,Tumor necrosis factor,> 20 µM (inactive)
same,IC50,[7],> 20 µM (inactive)
same,IC50,HEK293 [8],> 20 µM (inactive)
O=C(N/N=C/c1ccc([N+](=O)[O-])s1)c1ccccc1,CC50,[11],33.3 µM (active)
same,AC50,[14],2.29 µM (active)
same,IC50,cells,10.3 µM (active)
Cc1nccn1-c1cccnc1,IC50,[9],> 100 µM (not active)
same,IC50,[10],> 100 µM (inactive)
CC1Oc2cc3c(-c4c(O)cc(O)c5c(O)c6c(cc45)OC(C)C(C)C6=O)c(O)cc(O)c3c(O)c2C(=O)C1C (configuration not stated),EC50,[15],0.324 µM (active)
same,EC50,Streptokinase A,1.74 µM (active)
same,IC50,[12],2.15 µM (active)
same,EC50,Streptococcus,0.967 µM (active)
same,IC50,Nonstructural protein 1,29.4 µM (active)
COc1ccc(OC)c(NC(=O)c2cnc3ccccc3c2)c1,IC50,[9],> 10 µM (inconclusive)
same,IC50,[10],> 10 µM (inactive)
Oc1ccc(/C=N/n2cc(-c3ccccc3)nc2S)cc1,IC50,[12],16.5 µM (active)
same,AC50,[16],0.86 µM (active)
same,IC50,[17],> 66 µM (inactive)
same,IC50,[18],> 66 µM (inactive)
same,IC50,[13],101 µM (active)
COc1ccc(OC)c(NC(=O)c2cccnc2)c1,IC50,[9],> 100 µM (not active)
same,IC50,[10],> 100 µM (inactive)
O=C(CSc1nnc(COc2ccccc2Cl)o1)NC(=O)NCc1ccco1,IC50,[12],6.9 µM (active)
same,IC50,[19],5.93 µM (active)
O=S(=O)(Nc1cccnc1)c1ccccc1,IC50,[9],> 100 µM (not active)
same,IC50,[10],> 100 µM (inactive)
CCc1nnc(NC(=O)c2ccc(Cl)c(S(=O)(=O)N3CCc4ccccc4C3)c2)s1,EC50,HEK293 [1],2.1 µM (active)
same,IC50,HEK293 [2],5.23 µM (active)
same,IC50,HEK293 [3],17 µM (active)
same,EC50,[4],5.23 µM (active)
same,IC50,HEK293 [5],4.3 µM (active)
same,IC50,HEK293 [6],15.5 µM (active)

# Source: ChEMBL document CHEMBL1201862, “PubChem BioAssay data set” (2004)
